Tests used:
Type in all cases: in vivo
[1] = test system: mucin coat in the small intestine; experiment: Mucin coat in rat small intestine, alcian blue labeling; conditions: old rats (104 weeks), oral in drinking water, two weeks, vs old non-treated
Description: (§1) Male Wistar rats (Harlan Sprague Dawley Inc., Indianapolis, IN) at maturity (4 months, 300 to 350 gm) and old age (24 months, 375 to 450 gm) were included in the study. The animals were maintained on standard laboratory chow (8604 Teklad rodent diet; Harlan Laboratories, Indianapolis, IN) without restriction and water ad libitum and maintained in separated room without pathogen-free conditions. […] A subgroup of old animals was given over two weeks a pancreatic serine protease (trypsin) inhibitor (tranexamic acid, 14 days) in drinking water (137 mM, exchanged daily) which at a minimum fluid consumption of 40 ml/day amounts to a minimum dose of 0.39 gm/kg/day for 350 gm body weight. […]
(§2) Images of the immunolabel density were recorded from low power overviews of the tissue (10× objective, numerical aperture 0.25) under standard light conditions. Images were digitally analyzed to minimize operator error (NIH Image, 1.61, public domain software, spatial resolution of 640×480 pixel).
The intensity of the immune substrate label was measured after color extraction in form of light intensity (1 corresponding to white, 256 corresponding to black). The mean label density per group (with 3 animals per group) was determined from the average label density per animal (determined from 5 tissue sections/animal, 30 images/section).

[2] = test system: pancreatic trypsin; experiment: Pancreatic trypsin accumulation in rat small intestine, immunohistochemistry; conditions: old rats, oral, two weeks; increase in old vs young rats
Description: (§3) Male Wistar rats (Harlan Sprague Dawley Inc., Indianapolis, IN) at maturity (4 months, 300 to 350 gm) and old age (24 months, 375 to 450 gm) were included in the study. The animals were maintained on standard laboratory chow (8604 Teklad rodent diet; Harlan Laboratories, Indianapolis, IN) without restriction and water ad libitum and maintained in separated room without pathogen-free conditions. […] A subgroup of old animals was given over two weeks a pancreatic serine protease (trypsin) inhibitor (tranexamic acid, 14 days) in drinking water (137 mM, exchanged daily) which at a minimum fluid consumption of 40 ml/day amounts to a minimum dose of 0.39 gm/kg/day for 350 gm body weight.
(§4) Small intestine: Full thickness tissue blocks of the wall of proximal jejunum (3 by 5 mm) were fixed from all sides in 10% formaldehyde. Pancreatic trypsin and amylase were detected with primary (MoAb (D-1) and MoAb (G-10), respectively), and secondary antibodies labeled with DAB (Peroxidase Substrate Kit, ab64238, ABCAM).
as §2, with “pixel). […]” for “pixel).”

[3] = test system: amylase; experiment: Pancreatic amylase accumulation in rat small intestine, immunohistochemistry; conditions: old rats, oral, two weeks; increase in old vs young rats
Description: as §3, §4
as §2, with “pixel). […]” for “pixel).”

[4] = test system: pancreatic trypsin; experiment: Pancreatic trypsin accumulation in rat skin tissue, immunohistochemistry; conditions: old rats, two weeks
Description: as §1
To determine on the tissue sections the immunolabel density and distribution of pancreatic serine proteases, pancreatic trypsin MoAb (D-1): sc-137077(Santa Cruz) primary antibody was used, followed by secondary antibodies (MP-7601 for anti-rabbit IgG; MP-7602 for anti-mouse IgG; ImmPRESS Excel staining kit peroxidase). […] No counterstain was applied to facilitate quantitative label intensity measurements and since cellular and vascular structures are readily identified. […] All procedures were carried out under standardized conditions to permit quantitative comparison of label densities. […]

[5] = test system: collagen; experiment: Rat skin tissue collagen fragmentation, collagen hybridizing peptide (B-CHP) labeling; conditions: old rats, two weeks
Description: as §1
Tissue sections were stained with B-CHP (stock solution, 150 mM; final applied solution 7.5. mM). […] The B-CHP label intensity on the sections was recorded by digital microscopy.
as §2
The intensity of the immune substrate label was measured after color extraction in form of light intensity (1 corresponding to white, 256 corresponding to black). […]

Compound: NC[C@H]1CC[C@H](C(=O)O)CC1 [tranexamic acid]
- mucin coat in the small intestine (alcian blue label) [1]: restoration of the mucin coat
- pancreatic trypsin label density in the small intestine [2]: attenuated
- amylase label density in the small intestine [3]: attenuated
- pancreatic trypsin accumulation in skin tissue [4]: prevents trypsin accumulation
- collagen fragmentation in skin tissue (CHP) [5]: prevents collagen fragmentation

Source: patent US20260224675A1, “METHOD OF INHIBITING DEGRADING PROTEASE ACTIVITY IN THE SKIN” (The Regents of the University of California, priority 2023, published 2026)
